System: HCT-116 tumors
Experiment: Tumor growth inhibition experiment in HCT-116 tumor xenograft mouse model
Assay type: in vivo
Settings: for Volume of Tumor (mm^3, Average, n = 4): HCT-116 xenograft, BALB/c nude mice, intratumoral injection every two days, eight injections, olaparib 28.5 μg
Method: For the delivery of RNP, lipid nanoparticles (LNPs) were prepared using an ethanol dilution method. All lipids (the molar ratio of C12-200/DOPE/cholesterol/DMG-PEG/DOTAP in the LNPs was fixed at 35/16/46.5/2.5/11.11) were dissolved in ethanol. RNPs (with a molar ratio of sgRNA to Cas9 protein of 1:1) were dissolved in PBS (pH 7.4). The two solutions were rapidly mixed by pipetting at a PBS-to-ethanol ratio of 3:1 (v/v) and a total lipid-to-sgRNA ratio of 20:1 (w/w), followed by incubation at room temperature for 15 minutes. For in vivo experiments, the RNP-loaded LNP formulation was purified by dialysis against PBS for 2 hours using a dialysis kit (Pur-A-Lyzer Midi Dialysis Kits, MWCO 3.5 kDa) and then concentrated using Amicon Ultra-15 centrifugal filters (MWCO 50 kDa), followed by intratumoral injection (50 μg of sgRNA-loaded LNP per injection). The above C12-200 was purchased from Cayman Chemical. The above DOPE, DOTAP, and DMG-PEG (MW 2000) were purchased from Avanti Polar Lipids. The above Cholesterol, the Pur-A-Lyzer Midi Dialysis Kit (MWCO, 3.5 kDa), and the Amicon Ultra-15 centrifugal filters (MWCO, 50 kDa) were purchased from Sigma. All chemicals were used without further purification.
Female BALB/c nude mice (5 weeks old) were purchased from Orient Bio and used for all animal experiments. The mice were handled in accordance with the guidelines of the Institutional Animal Care and Use Committee of Ulsan National Institute of Science and Technology ([…]-23-09). In the case of the xenograft model, 5×10^6 HCT116 cells stably expressing Cas9WT were suspended in 60 μL of PBS (pH 7.4) and mixed with 60 μL of Matrigel (BD Bioscience), followed by subcutaneous injection into the flank of each mouse. Tumor volume and body weight were measured every two days. Tumor volume was calculated using the following formula.
In the above formula, V represents the volume, a represents the length of the long axis, and b represents the length of the short axis.
When the tumor volume reached approximately 80 mm^3, the mice were randomly divided into multiple groups for experimentation.
To evaluate the antitumor efficacy of the administered materials in each group, mice bearing tumors established according to Experimental Example 1.11 were anesthetized with 1.5% isoflurane, and the administered material (PBS or LNP) was intratumorally injected every two days. A total of eight injections were performed over a period of 14 days, and the mice were sacrificed on day 25.
The tumor growth inhibition rate was calculated using the following formula.
Here, VDay0,treatment and VDay24,treatment represent the tumor volumes of the treatment group on day 0 and day 24, respectively, and VDay0,control and VDay24,control represent the tumor volumes of the control group administered with PBS on day 0 and day 24, respectively.
The tumor xenograft mouse model prepared according to Experimental Example 1.10 was randomly divided into four groups. Then, a PARP inhibitor and a CRISPR/nCas composition for cell death were administered according to Experimental Example 1.11 to confirm tumor growth inhibition effects. Specifically, 28.5 μg of olaparib diluted in PBS and the CRISPR/nCas composition for cell death were administered.

O=C(c1cc(Cc2n[nH]c(=O)c3ccccc23)ccc1F)N1CCN(C(=O)C2CC2)CC1 [Olaparib, olaparib]
Volume of Tumor (mm^3, Average, n = 4) (Day 0): 82.1 mm^3 | Volume of Tumor (mm^3, Average, n = 4) (Day 2): 117.0 mm^3 | Volume of Tumor (mm^3, Average, n = 4) (Day 4): 172.6 mm^3 | Volume of Tumor (mm^3, Average, n = 4) (Day 6): 241.8 mm^3 | Volume of Tumor (mm^3, Average, n = 4) (Day 8): 320.3 mm^3 | Volume of Tumor (mm^3, Average, n = 4) (Day 10): 371.2 mm^3 | Volume of Tumor (mm^3, Average, n = 4) (Day 12): 476.0 mm^3 | Volume of Tumor (mm^3, Average, n = 4) (Day 14): 542.7 mm^3 | Volume of Tumor (mm^3, Average, n = 4) (Day 16): 610.7 mm^3 | Volume of Tumor (mm^3, Average, n = 4) (Day 18): 702.9 mm^3 | Volume of Tumor (mm^3, Average, n = 4) (Day 20): 847.8 mm^3 | Volume of Tumor (mm^3, Average, n = 4) (Day 22): 907.4 mm^3 | Volume of Tumor (mm^3, Average, n = 4) (Day 24): 996.7 mm^3 | Tumor Inhibition Rate (%) (calculated from tumor volumes on day 0 and day 24 versus PBS control, HCT-116 xenograft mice): 8.10%
